Where two headings read alike, the source gives them in different places.
Experiments:
[1] = tested on: N18-RE-105 hybrid cells; experiment: Effect against glutamate-induced cytotoxicity (LDH release)
Experimental: We used ramelteon and metabolite 1 (as synthesized in Example 1) in this study. Idebenone and vitamine E (α-tocopherol) were purchased from Wako Pure Chemical Industries (Osaka, Japan) and used as positive control. All other chemicals were purchased from standard sources.
For cytotoxicity studies, cells were plated in 96-well plates at a density of 5,000 cells per well in 0.1 ml of the above medium. After culturing for 24 hr, the medium was removed and replaced with medium containing 10 mM glutamate with or without various concentrations of compounds. After 24 hours of incubation, cytotoxicity was quantitated by the release of the cytosolic enzyme lactate dehydrogenase (LDH) into the culture medium. The percentage of cell viability in the presence of each of the test compounds was calculated from the following formula: % cell viability in the presence of compound={LDH activity (absorbance at 550 nm) in the culture medium with compound plus 10 mM glutamate−LDH activity in the control culture medium/LDH activity in the culture medium with 10 mM glutamate−LDH activity in the control culture medium}×100.

[2] = tested on: human retinal pigment epithelial (RPE) cells; details: added diurnally to RPE cell cultures for three consecutive days; cited from earlier work
[3] = tested on: age-related macular degeneration; details: 3 mg daily at bedtime for at least three months; cited from earlier work
[4] = tested on: melatonin MT1/MT2 receptors; details: cited from earlier work

## COC1=C(OC)C(=O)C(CCCCCCCCCCO)=C(C)C1=O [Idebenone]
[1]
  effect on cytotoxicity induced by 10 mM glutamate / cell viability: cell viability was increased

## COc1ccc2[nH]cc(CCNC(C)=O)c2c1 [melatonin]
[2]
  H2O2-induced cell death and mitochondrial DNA damage: markedly reduced
[1]
  effect on cytotoxicity induced by 10 mM glutamate / cell viability: did not affect cell viability
[3]
  visual acuity: remained stable

## CCC(=O)NCC[C@@H]1CCc2cc(O)c3c(c21)CCO3 [metabolite 1, (S)—N-(2-[4-hydroxy-1,6,7,8-tetrahydro-2H-indeno[5,4-b]furan-8-yl]ethyl)propionamide]
[1]
  effect on cytotoxicity induced by 10 mM glutamate / cell viability: inhibited
[1]; 10 mM glutamate treated cell culture, increasing amount, FIG. 2
  cell death (absorbance, LDH) with varying amounts of compound: cell death is reduced
[1]; highest concentration, 10 mM glutamate, FIGS. 1 and 2
  toxicity of glutamate over the basal viability: completely prevented

## CCC(=O)NCC[C@@H]1CCc2ccc3c(c21)CCO3 [ramelteon, (S)—N-[2-(1,6,7,8-tetrahydro-2H-indeno[5,4-b]furan-8-yl)ethyl]propionamide]
[1]
  effect on cytotoxicity induced by 10 mM glutamate / cell viability: did not affect cell viability
[4]
  affinity for melatonin MT1/MT2 receptors: high affinity

## Cc1c(C)c2c(c(C)c1O)CC[C@@](C)(CCC[C@H](C)CCC[C@H](C)CCCC(C)C)O2 [tocopherol, α-tocopherol]
[1]; 10 mM glutamate, 24 hours incubation, LDH release, FIG. 1
  effect on cytotoxicity induced by 10 mM glutamate / cell viability: cell viability was increased

Source: patent US8785491B2, “Pharmaceutical compositions and methods for treating age-related macular degeneration with melatonin analogues” (Takeda Pharmaceuticals U.S.A., Inc., priority 2008, dated 2014)
